Assay results taken from US11008301B2, “Piperidinone formyl peptide 2 receptor agonists” (BRISTOL-MYERS SQUIBB COMPANY, priority 2017, dated 2021).

Each molecule was assayed against human FPR2 (Homo sapiens (Human), UniProt P25090) (assay: FPR2 cyclic adenosine monophosphate (cAMP) assay). Conditions: CHO cells overexpressing human FPR2; cAMP assay; read-out: hFPR2 agonist activity EC50 (hFPR2 Assay).
Format: cell-based
Procedure: FPR2 and FPR1 Cyclic Adenosine Monophosphate (cAMP) Assays. A mixture of forskolin (5 μM final for FPR2 or 10 μM final for FPR1) and IBMX (200 μM final) were added to 384-well Proxiplates (Perkin-Elmer) pre-dotted with test compounds in DMSO (1% final) at final concentrations in the range of 1.7 nM to 100 μM. Chinese Hamster Ovary cells (CHO) overexpressing human FPR1 or human FPR2 receptors were cultured in F-12 (Ham's) medium supplemented with 10% qualified FBS, 250 μg/ml zeocin and 300 μg/ml hygromycin (Life Technologies). Reactions were initiated by adding 2,000 human FPR2 cells per well or 4,000 human FPR1 cells per well in Dulbecco's PBS (with calcium and magnesium) (Life Technologies) supplemented with 0.1% BSA (Perkin-Elmer). The reaction mixtures were incubated for 30 min at room temperature. The level of intracellular cAMP was determined using the HTRF HiRange cAMP assay reagent kit (Cisbio) according to manufacturer's instruction. Solutions of cryptate conjugated anti-cAMP and d2 flurorophore-labelled cAMP were made in a supplied lysis buffer separately. Upon completion of the reaction, the cells were lysed with equal volume of the d2-cAMP solution and anti-cAMP solution. After a 1-h room temperature incubation, time-resolved fluorescence intensity was measured using the Envision (Perkin-Elmer) at 400 nm excitation and dual emission at 590 nm and 665 nm. A calibration curve was constructed with an external cAMP standard at concentrations ranging from 1 μM to 0.1 pM by plotting the fluorescent intensity ratio from 665 nm emission to the intensity from the 590 nm emission against cAMP concentrations. The potency and activity of a compound to inhibit cAMP production was then determined by fitting to a 4-parametric logistic equation from a plot of cAMP level versus compound concentrations.

human FPR2, sequence (P25090 whole entry): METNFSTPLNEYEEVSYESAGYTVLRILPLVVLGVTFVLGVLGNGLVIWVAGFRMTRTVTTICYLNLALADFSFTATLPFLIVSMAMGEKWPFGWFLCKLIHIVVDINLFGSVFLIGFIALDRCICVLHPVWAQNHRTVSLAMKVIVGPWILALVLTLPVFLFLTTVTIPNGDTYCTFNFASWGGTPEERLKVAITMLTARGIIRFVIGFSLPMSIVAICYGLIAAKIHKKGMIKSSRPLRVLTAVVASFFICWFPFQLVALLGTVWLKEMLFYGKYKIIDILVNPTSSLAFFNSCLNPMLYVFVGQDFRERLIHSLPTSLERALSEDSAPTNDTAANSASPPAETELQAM

EC50, 10 to 100 nM:
O=C(Nc1ccc(C(F)(F)F)cc1)N[C@@H]1CCCN(c2ccc(N3CC[C@@H](O)C3)nc2)C1=O [Example 55]
CC1(C)CCN(c2ccc(N3CCC[C@@H](NC(=O)Nc4ccc(C(F)(F)F)cc4)C3=O)cc2)CC1 [Example 40]
CC1CCN(c2ccc(N3CCC[C@@H](NC(=O)Nc4ccc(C(F)(F)F)cc4)C3=O)cc2)CC1 [Example 41]
COc1ccc(NC(=O)N[C@@H]2CCCN(c3ccc(N4CCOC[C@H]4C)cc3)C2=O)cc1 [Example 36]
COC1CCN(c2ccc(N3CCC[C@@H](NC(=O)Nc4ccc(C(F)(F)F)cc4)C3=O)cn2)CC1 [Example 58]
COC[C@@H]1CCCN1c1ccc(N2CCC[C@@H](NC(=O)Nc3ccc(C(F)(F)F)cc3)C2=O)cc1 [Example 27]
O=C(Nc1ccc(C(F)(F)F)cc1)N[C@@H]1CCCN(c2ccc(N3CCCC(O)C3)nc2)C1=O (some centres unmarked) [Example 60]
O=C(Nc1ccc(C(F)(F)F)cc1)N[C@@H]1CCCN(c2ccc(N3CC[C@H](O)C3)cc2)C1=O [Example 3]
C[C@@H]1COCCN1c1ccc(N2CCC[C@@H](NC(=O)Nc3ccc(C(F)(F)F)nc3)C2=O)cc1 [Example 7]
CC1CCN(c2ccc(N3CCC[C@@H](NC(=O)Nc4ccc(C(F)(F)F)cc4)C3=O)cn2)CC1 [Example 59]
O=C(Nc1ccc(Cl)nc1)N[C@@H]1CCCN(c2ccc(N3CC[C@@H](O)C3)cc2)C1=O [Example 6]
COC[C@@H]1CCCN1c1ccc(N2CCC[C@@H](NC(=O)Nc3ccc(C(F)(F)F)nc3)C2=O)cc1 [Example 25]
O=C(Nc1ccc(C(F)(F)F)cc1)N[C@@H]1CCCN(c2ccc(N3CCCC(O)C3)cc2)C1=O (some centres unmarked) [Example 31]
C[C@@H]1CN(c2ccc(N3CCC[C@@H](NC(=O)Nc4ccc(C(F)(F)F)cc4)C3=O)cc2)C[C@H](C)O1 [Example 43]
O=C(Nc1ccc(C(F)(F)F)cc1)N[C@@H]1CCCN(c2ccc(N3CC4(COC4)C3)cc2)C1=O [Example 10]
C[C@H]1COCCN1c1ccc(N2CCC[C@@H](NC(=O)Nc3ccc(C(F)(F)F)cc3)C2=O)cc1 [Example 37]
CCN1CCN(c2ccc(N3CCC[C@@H](NC(=O)Nc4ccc(C(F)(F)F)cc4)C3=O)cc2)CC1 [Example 42]
O=C(Nc1ccc(C(F)(F)F)cc1)N[C@@H]1CCCN(c2ccc(N3CCOCC3)cc2F)C1=O [Example 53]
O=C(Nc1ccc(C(F)(F)F)cc1)N[C@@H]1CCCN(c2ccc(N3CCCC3=O)cc2)C1=O [Example 2]

EC50, ≤ 10 nM:
O=C(Nc1ccc(C(F)(F)F)cc1)N[C@@H]1CCCN(c2ccc(N3CCOCC3)cc2)C1=O [Example 46]
O=C(Nc1ccc(C(F)(F)F)cc1)N[C@@H]1CCCN(c2ccc(N3CC(O)C(F)C3)cc2)C1=O (some centres unmarked) [Example 74]
O=C(Nc1ccc(C(F)(F)F)cc1)N[C@@H]1CCCN(c2ccc(N3CC[C@@H](O)C3)cc2)C1=O [Example 1, 1-(1-(4-((R)-3-Hydroxypyrrolidin-1-yl)phenyl)-2-oxopiperidin-3-yl)-3-(4-(trifluoromethyl)phenyl)urea]
O=C(Nc1ccc(Cl)cc1F)N[C@@H]1CCCN(c2ccc(N3CC[C@@H](F)C3)cc2)C1=O [Example 82]
COCC1CCCN1c1ccc(N2CCC[C@@H](NC(=O)Nc3ccc(C(F)(F)F)cc3)C2=O)cc1 (some centres unmarked) [Example 66]
CC1(F)CCN(c2ccc(N3CCC[C@@H](NC(=O)Nc4ccc(Cl)cc4)C3=O)cc2)CC1 [Example 99]
CC(C)[C@@H]1COCCN1c1ccc(N2CCC[C@@H](NC(=O)Nc3ccc(C(F)(F)F)cc3)C2=O)cc1 [Example 39]
CN(C)C1CCN(c2ccc(N3CCC[C@@H](NC(=O)Nc4ccc(Cl)cc4)C3=O)c(F)c2F)C1 (some centres unmarked) [Example 75]
O=C(Nc1ccc(C(F)(F)F)cc1)N[C@@H]1CCCN(c2ccc(N3C[C@H]4CC[C@@H](C3)O4)cc2)C1=O [Example 5]
COCC1COCCN1c1ccc(N2CCC[C@@H](NC(=O)Nc3ccc(C(F)(F)F)cc3)C2=O)cc1 (some centres unmarked) [Example 13]
CN(C)C1CN(c2ccc(N3CCC[C@@H](NC(=O)Nc4ccc(C(F)(F)F)cc4)C3=O)cc2)CC1O (some centres unmarked) [Example 79]
CC1(O)CCCN(c2ccc(N3CCC[C@@H](NC(=O)Nc4ccc(Cl)cc4)C3=O)cc2)C1 (some centres unmarked) [Example 93]
CC1(O)CCN(c2ccc(N3CCC[C@@H](NC(=O)Nc4ccc(Cl)cc4)C3=O)cc2)C1 (some centres unmarked) [Example 94]
COC1CCN(c2ccc(N3CCC[C@@H](NC(=O)Nc4ccc(C(F)(F)F)cc4)C3=O)cc2)CC1 [Example 30]
O=C(Nc1ccc(Cl)cc1F)N[C@@H]1CCCN(c2ccc(N3CC[C@@H](O)C3)nc2)C1=O [Example 106]
O=C(Nc1ccc(C(F)(F)F)cc1)N[C@@H]1CCCN(c2ccc(N3CCC(CO)C3)cc2)C1=O (some centres unmarked) [Example 73]
O=C(Nc1ccc(Cl)cc1F)N[C@@H]1CCCN(c2ccc(N3CCCCC3=O)c(F)c2F)C1=O [Example 80]
O=C(Nc1ccc(Cl)cc1)N[C@@H]1CCCN(c2ccc(N3C[C@@H](F)[C@@H](F)C3)cc2)C1=O [Example 98]
COCC1CCCCN1c1ccc(N2CCC[C@@H](NC(=O)Nc3cnc(C(F)(F)F)cn3)C2=O)c(F)c1 (some centres unmarked) [Example 71]
O=C(Nc1ccc(C(F)(F)F)cc1)N[C@@H]1CCCN(c2ccc(N3CCCC(C(F)(F)F)C3)cc2)C1=O (some centres unmarked) [Example 72]
CN(C)C1CCN(c2ccc(N3CCC[C@@H](NC(=O)Nc4ccc(Cl)cc4)C3=O)cn2)C1 (some centres unmarked) [Example 103]
CN(C)C1CN(c2ccc(N3CCC[C@@H](NC(=O)Nc4ccc(C(F)(F)F)cc4)C3=O)cc2)CC1F (some centres unmarked) [Example 84]
O=C(Nc1ccc(Cl)cc1F)N[C@@H]1CCCN(c2ccc(N3CC[C@@H](F)C3)c(F)c2F)C1=O [Example 88]
CC1CCCN(c2ccc(N3CCC[C@@H](NC(=O)Nc4ccc(C(F)(F)F)cc4)C3=O)cc2)C1 (some centres unmarked) [Example 38]
CS(=O)(=O)C1CCN(c2cc(F)c(N3CCC[C@@H](NC(=O)Nc4ccc(Cl)cc4F)C3=O)c(F)c2)C1 (some centres unmarked) [Example 90]
O=C(Nc1ccc(Cl)cc1)N[C@@H]1CCCN(c2ccc(N3CCCC(CO)C3)cc2)C1=O (some centres unmarked) [Example 78]

EC50, 100 to 1000 nM:
C[C@H]1COCCN1c1ccc(N2CCC[C@@H](NC(=O)Nc3ccc(C(F)(F)F)nc3)C2=O)cc1 [Example 8]
C[C@@H]1COCCN1c1ccc(N2CCC[C@@H](NC(=O)Nc3ccc(C(F)(F)F)cn3)C2=O)cc1 [Example 48]
COCC1COCCN1c1ccc(N2CCC[C@@H](NC(=O)Nc3ccc(C(F)(F)F)nc3)C2=O)cc1 (some centres unmarked) [Example 22]
O=C(Nc1ccc(C(F)(F)F)nc1)N[C@@H]1CCCN(c2ccc(N3[C@@H]4CC[C@H]3COC4)nc2)C1=O [Example 62]
COC[C@@H]1CCCN1c1ccc(N2CCC[C@@H](NC(=O)Nc3ccc(C(F)(F)F)cn3)C2=O)cn1 [Example 63]
